Data: paper PMC6254274, “Cytotoxic Components of Pereskia bleo (Kunth) DC. (Cactaceae) Leaves” (Molecules, 2009)
Values joined by “and” are separate entries in the source; they are usually repeats but may differ in a detail not shown here. Identical values can stand only once. Like-named read-outs stand apart in the source and are kept apart here.

Key:
[1] = tested on: human nasopharyngeal epidermoid carcinoma cell line (KB); assay: In vitro Neutral Red cytotoxicity assay, KB; format: cell-based; details: 72 h; for IC50: read-out: Cytotoxicity (IC50) KB
From the text: (§1) No effect due to the DMSO was observed. Doxorubicin was used as the positive control. The well containing untreated cells was the negative control.
(§2) Cytotoxicity of each sample is expressed as IC50 value.

[2] = tested on: human hormone-dependent breast carcinoma cell line (MCF7); assay: In vitro Neutral Red cytotoxicity assay, MCF7; format: cell-based; details: for IC50: read-out: Cytotoxicity (IC50) MCF7
From the text: The well containing untreated cells was the negative control.
as §2

[3] = tested on: human cervical carcinoma cell line (CasKi); assay: In vitro Neutral Red cytotoxicity assay, CasKi; format: cell-based; details: 72 h; for IC50: read-out: Cytotoxicity (IC50) CasKi
From the text: as §1, §2

[4] = In vitro Neutral Red cytotoxicity assay, MRC-5; format: cell-based, human; details: human
From the text: as §1, §2

[5] = tested on: human colon carcinoma cell line (HCT 116); assay: In vitro Neutral Red cytotoxicity assay, HCT 116; format: cell-based; details: for IC50: read-out: Cytotoxicity (IC50) HCT 116
From the text: as §1, §2

[6] = tested on: human lung carcinoma cell line (A549); assay: In vitro Neutral Red cytotoxicity assay, A549; details: for IC50: read-out: Cytotoxicity (IC50) A549
Experimental: The in vitro cytotoxicity assay was carried out using a Neutral Red cytotoxicity assay as previously described by Borenfreund and Puerner with some modifications; this test determines the accumulation of the Neutral Red dye in the lysosomes of viable and uninjured cells.
Human nasopharyngeal epidermoid carcinoma cell line (KB), human cervical carcinoma cell line (CasKi), human colon carcinoma cell line (HCT 116), human hormone-dependent breast carcinoma cell line (MCF7), human lung carcinoma cell line (A549) and non-cancer human fibroblast cell line (MRC-5) were purchased from the American Tissue Culture Collection (ATCC, USA). KB cells were maintained in Medium 199 (Sigma), CasKi, A549 and MCF7 cells in RPMI 1640 medium (Sigma), HCT 116 in McCOY’S 5A Medium (Sigma) and MRC-5 cells in EMEM (Eagle Minimum Essential Medium) (Sigma), supplemented with 10% foetal bovine serum (FBS, PAA Lab, Austria), 100 µg/mL penicillin or streptomycin (PAA Lab, Austria) and 50 µg/mL of fungizone (PAA Lab, Austria). The cells were cultured in a 5% CO2 incubator (Shel Lab water-jacketed) kept at 37°C in a humidified atmosphere.
The Neutral Red cytotoxicity assay is based on the initial protocol described by Borenfreund and Puerner with some modifications. Briefly, the cells (1x10^4/well) were seeded in 96-well microtiter plates (Nunc) and allowed to grow for 24 hours before treatment. After 24 hours of incubation, the cells were treated with six different concentrations (0.1-100 µg/mL) of test compounds, in three replicates. The plates were further incubated for 72 h at 37°C in a 5% CO2 incubator. A stock solution was initially obtained by dissolving the test compounds in DMSO. Further dilution to different tested concentrations were then carried out ensuring that the final concentration of DMSO in the test and control wells was not in excess of 1% (v/v). […] The well containing untreated cells was the negative control. At the end of the incubation period, the media were replaced with medium containing 50 µg/mL of Neutral Red. The plates were incubated for another 3 hours to allow for uptake of the vital dye into the lysosomes of viable and […] cells. After the incubation period, the media were removed and cells were washed with the neutral red washing solution. The dye was eluted from the cells by adding 200 µL of Neutral Red resorb solution and incubated for 30 minutes at room temperature with rapid agitation on a microtiter plate shaker. Dye absorbance was measured at 540 nm using a spectrophotometer ELISA plate reader. The average data from triplicates were expressed in terms of killing percentage relative to negative control. The percentage of inhibition (%) of each of the test samples was calculated according to the following formula: [drawing 1] where OD control: Optical Density of negative control; OD sample: Optical Density of sample
Cytotoxicity of each sample is expressed as IC50 value. The IC50 value is the concentration of test compounds that cause 50 % inhibition or cell death, averaged from the three experiments, and was obtained by plotting the percentage inhibition versus concentration of test compounds. […] However, we recognized that whether an IC50 value corresponds to a significant or non-significant cytotoxicity depends on the sensitivity of the cell line.

[7] = tested on: non-cancer human fibroblast cell line (MRC-5); assay: In vitro Neutral Red cytotoxicity assay, MRC-5; format: cell-based; details: MRC-5 cells, 72 h
From the text: as §1, §2

[8] = Homo sapiens, KB cells, Neutral Red
[9] = Homo sapiens, KB cells, Neutral Red, value in parentheses
[10] = Homo sapiens, MCF7 cells, 72 h, Neutral Red
[11] = Homo sapiens, MCF7 cells, 72 h, Neutral Red, value in parentheses
[12] = Homo sapiens, Ca-Ski, CasKi cells, Neutral Red
[13] = Homo sapiens, Ca-Ski, CasKi cells, Neutral Red, value in parentheses
[14] = MRC-5 cells (non-cancer fibroblast cell line)
[15] = MRC-5 cells (non-cancer fibroblast cell line), value in parentheses
[16] = Homo sapiens, HCT 116 cells, 72 h, Neutral Red
[17] = Homo sapiens, HCT 116 cells, 72 h, Neutral Red, value in parentheses

| Compound | IC50 [1, 8] [µg/mL] | IC50 [1, 9] [µM] | IC50 [2, 10] [µg/mL] | IC50 [2, 11] [µM] | IC50 [3, 12] [µg/mL] | IC50 [3, 13] [µM] | IC50 at 72 h [4, 14] [µg/mL] | IC50 at 72 h [4, 15] [µM] | IC50 [5, 16] [µg/mL] | IC50 [5, 17] [µM] | IC50 ([6]; Homo sapiens, A549, 72 h) | also measured |
| --- | --- | --- | --- | --- | --- | --- | --- | --- | --- | --- | --- | --- |
| CC1(C)CCCC2(C)OC(=O)C=C12 (stereo not shown) [Dihydroactinidiolide (1), Dihydroactinidiolide] | 6.7 | 37.2 | 30 | 167 | 40 | 222 | 91.3 | 507 | 5 | 27.8 | 97 µg/mL and 539 µM | – |
| phytol [Phytol (7)] | – | – | – | – | – | – | – | – | – | – | – | Cytotoxicity (IC50) KB ([1]; KB cells, Neutral Red): 7.1 µg/mL; IC50 ([1]; KB cells, Neutral Red, value in parentheses): 24 µM; Cytotoxicity (IC50) MCF7 ([2]; MCF7 cells, 72 h, Neutral Red): 34 µg/mL; IC50 ([2]; MCF7 cells, 72 h, Neutral Red, value in parentheses): 115 µM; Cytotoxicity (IC50) CasKi ([3]; CasKi cells, Neutral Red): 18 µg/mL; IC50 ([3]; CasKi cells, Neutral Red, value in parentheses): 60.8 µM; Cytotoxicity (IC50) MRC-5 [7]: 74.3 µg/mL; IC50 ([7]; value in parentheses): 251 µM; Cytotoxicity (IC50) HCT 116 ([5]; HCT 116 cells, 72 h, Neutral Red): 100 µg/mL; IC50 ([5]; HCT 116 cells, 72 h, Neutral Red, value in parentheses): 338 µM; Cytotoxicity (IC50) A549 ([6]; A549 cells, 72 h, Neutral Red): 31 µg/mL; IC50 ([6]; A549 cells, 72 h, Neutral Red, value in parentheses): 105 µM |
| Cc1c(C)c2c(c(C)c1O)CC[C@@](C)(CCC[C@H](C)CCC[C@H](C)CCCC(C)C)O2 [α-tocopherol (6), α-tocopherol] | 8 | 18.6 | 7.5 | 17.4 | 6 | 14 | 30.5 | 70.9 | 31 | 72.1 | 6 µg/mL and 13.9 µM | – |
| CC[C@H](CC[C@@H](C)[C@H]1CC[C@H]2[C@@H]3CC=C4C[C@@H](O)CC[C@]4(C)[C@H]3CC[C@]12C)C(C)C [β -sitosterol (4), β-sitosterol] | – | – | – | – | – | – | – | – | – | – | 78 µg/mL and 188 µM | IC50 ([1]; Homo sapiens, KB): > 100 µg/mL and > 242 µM; IC50 ([2]; Homo sapiens, MCF7, 72 h): 72 µg/mL and 174 µM; IC50 ([3]; Homo sapiens, Ca-Ski): 62 µg/mL and 150 µM; IC50 at 72 h ([4]; MRC-5 cells): > 100 µg/mL; IC50 at 72 h ([4]; MRC-5 cells, value in parentheses): > 242 µM; IC50 ([5]; Homo sapiens, HCT-116, 72 h): > 100 µg/mL and > 242 µM |
| COc1cccc2c1C(=O)c1c(O)c3c(c(O)c1C2=O)C[C@@](O)(C(=O)CO)C[C@@H]3O[C@H]1C[C@H](N)[C@H](O)[C@H](C)O1 [Doxorubicin, reference compound] | 0.013 | 0.023 | – | – | 0.006 | 0.011 | 0.55 | 1.01 | 0.36 | 0.663 | 0.22 µg/mL and 401 nM | – |
| CC(C)(C)c1ccc(O)c(C(C)(C)C)c1 [2,4-di tert butylphenol (5), 2,4-di-tert-butylphenol] | 0.81 | 3.93 | 5.75 | 27.9 | 4.5 | 21.8 | 20 | 97.1 | 29 | 141 | 6 µg/mL and 29.1 µM | – |
